This note sets out measurements from patent publication US20090304692A1, “TRIAZINE COMPOUNDS AS PI3 KINASE AND MTOR INHIBITORS” (Wyeth, priority 2008, published 2009).

Several values for one entry are separate records, joined by “and”; a condition that tells them apart may be missing. Equal entries are not always repeated. Where two headings read alike, the source gives them in different places.

As usually defined, the IC50 is the midpoint of a concentration-inhibition curve.

The subject of assay [1] is human prostate PC3-mm2 tumor cell line. The experiment in a line: In vitro cell culture growth assay (MTS), PC3-mm2. It is filed as cell-based.
For the next assay, the target named is PI3K-γ (Homo sapiens, UniProt P48736). The experiment in a line: PI3K-gamma fluorescence polarization assay. The note with it: read-out: IC50 PI3Kγ. In general terms: Polarisation of emitted light reports the rotation of a fluorescent probe.
PI3K-γ, sequence (P48736 whole entry, species assumed): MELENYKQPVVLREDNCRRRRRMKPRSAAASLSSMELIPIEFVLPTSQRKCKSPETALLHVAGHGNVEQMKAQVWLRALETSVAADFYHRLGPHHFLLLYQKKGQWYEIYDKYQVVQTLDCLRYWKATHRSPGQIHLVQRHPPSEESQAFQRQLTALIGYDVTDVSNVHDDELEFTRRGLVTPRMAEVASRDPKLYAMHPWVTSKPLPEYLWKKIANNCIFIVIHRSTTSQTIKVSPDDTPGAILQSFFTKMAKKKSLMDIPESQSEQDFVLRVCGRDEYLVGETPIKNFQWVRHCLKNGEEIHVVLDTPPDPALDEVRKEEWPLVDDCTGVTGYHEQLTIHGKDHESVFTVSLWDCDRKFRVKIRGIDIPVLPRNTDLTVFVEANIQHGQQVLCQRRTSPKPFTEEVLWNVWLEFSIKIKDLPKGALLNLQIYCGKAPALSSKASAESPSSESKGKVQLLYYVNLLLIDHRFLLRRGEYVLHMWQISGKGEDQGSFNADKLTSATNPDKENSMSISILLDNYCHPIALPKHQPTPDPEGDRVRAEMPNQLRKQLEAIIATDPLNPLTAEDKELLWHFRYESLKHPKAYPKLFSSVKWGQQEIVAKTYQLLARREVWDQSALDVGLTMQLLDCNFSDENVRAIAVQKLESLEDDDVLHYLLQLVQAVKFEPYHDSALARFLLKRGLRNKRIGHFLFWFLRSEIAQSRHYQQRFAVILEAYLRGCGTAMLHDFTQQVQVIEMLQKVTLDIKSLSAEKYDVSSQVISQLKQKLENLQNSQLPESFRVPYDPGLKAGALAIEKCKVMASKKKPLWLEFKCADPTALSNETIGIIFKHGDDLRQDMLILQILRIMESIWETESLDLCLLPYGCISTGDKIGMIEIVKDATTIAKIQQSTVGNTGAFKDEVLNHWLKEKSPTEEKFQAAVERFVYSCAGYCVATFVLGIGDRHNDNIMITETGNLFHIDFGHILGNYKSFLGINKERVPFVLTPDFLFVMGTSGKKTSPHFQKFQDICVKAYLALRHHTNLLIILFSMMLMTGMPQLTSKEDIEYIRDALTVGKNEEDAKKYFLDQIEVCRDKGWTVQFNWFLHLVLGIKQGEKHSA
The subject of assay [2] is human breast MDA-MB-361 tumor cell line. The experiment in a line: In vitro cell culture growth assay (MTS), MDA-MB-361. The format is cell-based.
Another assay concerns the target PI3K-α (Homo sapiens, UniProt P42336). The experiment in a line: PI3K-alpha fluorescence polarization assay. The note with it: read-out: IC50 PI3Kα.
In the next assay the target is Human mTOR (FLAG-TOR) (Homo sapiens, UniProt P42345). The experiment in a line: mTOR kinase assay (DELFIA format, purified enzyme). The format is biochemical. Conditions: read-out: IC50 mTOR.
Human mTOR (FLAG-TOR), sequence (P42345 1360-2549 limits assumed): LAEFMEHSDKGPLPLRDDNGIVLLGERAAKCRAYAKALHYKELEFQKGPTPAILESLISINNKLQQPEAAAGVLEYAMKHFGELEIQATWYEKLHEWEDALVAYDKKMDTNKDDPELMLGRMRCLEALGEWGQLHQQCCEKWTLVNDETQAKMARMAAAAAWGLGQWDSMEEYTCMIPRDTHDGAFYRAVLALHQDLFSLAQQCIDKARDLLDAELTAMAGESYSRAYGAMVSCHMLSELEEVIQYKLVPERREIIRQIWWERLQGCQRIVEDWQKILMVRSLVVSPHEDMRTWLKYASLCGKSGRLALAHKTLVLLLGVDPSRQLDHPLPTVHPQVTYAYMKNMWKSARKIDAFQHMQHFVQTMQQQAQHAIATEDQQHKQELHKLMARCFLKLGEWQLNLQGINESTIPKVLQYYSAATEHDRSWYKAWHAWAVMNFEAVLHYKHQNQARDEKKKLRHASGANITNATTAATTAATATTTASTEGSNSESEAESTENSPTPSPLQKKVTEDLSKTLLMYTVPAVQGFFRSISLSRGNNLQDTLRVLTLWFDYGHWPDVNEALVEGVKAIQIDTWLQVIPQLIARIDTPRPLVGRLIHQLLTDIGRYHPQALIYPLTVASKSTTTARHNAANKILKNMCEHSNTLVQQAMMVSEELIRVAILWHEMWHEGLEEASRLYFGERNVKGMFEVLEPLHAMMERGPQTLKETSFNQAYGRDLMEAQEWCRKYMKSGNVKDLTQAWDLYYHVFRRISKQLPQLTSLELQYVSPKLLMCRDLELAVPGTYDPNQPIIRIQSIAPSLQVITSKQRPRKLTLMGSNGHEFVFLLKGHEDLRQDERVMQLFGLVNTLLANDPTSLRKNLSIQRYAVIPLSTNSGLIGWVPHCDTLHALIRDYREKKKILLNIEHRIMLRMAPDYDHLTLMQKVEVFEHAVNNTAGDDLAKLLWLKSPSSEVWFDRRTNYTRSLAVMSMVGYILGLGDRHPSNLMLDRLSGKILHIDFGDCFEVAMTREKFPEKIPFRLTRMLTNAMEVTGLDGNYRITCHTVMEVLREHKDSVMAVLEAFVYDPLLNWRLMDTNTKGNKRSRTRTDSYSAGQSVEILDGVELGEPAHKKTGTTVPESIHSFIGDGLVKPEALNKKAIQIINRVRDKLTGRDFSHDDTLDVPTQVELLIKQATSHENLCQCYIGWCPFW
[3] abbreviates: MTS cell growth assay, three days after drug treatment, PC3-mm2 cells, read-out: IC50 PC3-mm2.
[4] abbreviates: MTS cell growth assay, three days after drug treatment, MDA-MB-361 cells, read-out: IC50 MDA-MB-361.
[5] abbreviates: Homo sapiens, PC3MM2, 72 h, MTS cell growth assay, three days after drug treatment, read-out: IC50 PC3-mm2.
[6] abbreviates: Homo sapiens, MDA-MB-361, 72 h, MTS cell growth assay, three days after drug treatment, read-out: IC50 MDA-MB-361.
Where [7] appears, read: Homo sapiens, PC3MM2, 72 h, MTS cell growth assay, three days after drug treatment, PC3-mm2 cells, read-out: IC50 PC3-mm2.
The mark [8] stands for this setting: Homo sapiens, MDA-MB-361, 72 h, MTS cell growth assay, three days after drug treatment, MDA-MB-361 cells, read-out: IC50 MDA-MB-361.
Where [9] appears, read: Homo sapiens, 72 h, MTS cell growth assay, three days after drug treatment, MDA-MB-361 cells, read-out: IC50 MDA-MB-361.

PI3K-α, sequence (P42336 whole entry, species assumed): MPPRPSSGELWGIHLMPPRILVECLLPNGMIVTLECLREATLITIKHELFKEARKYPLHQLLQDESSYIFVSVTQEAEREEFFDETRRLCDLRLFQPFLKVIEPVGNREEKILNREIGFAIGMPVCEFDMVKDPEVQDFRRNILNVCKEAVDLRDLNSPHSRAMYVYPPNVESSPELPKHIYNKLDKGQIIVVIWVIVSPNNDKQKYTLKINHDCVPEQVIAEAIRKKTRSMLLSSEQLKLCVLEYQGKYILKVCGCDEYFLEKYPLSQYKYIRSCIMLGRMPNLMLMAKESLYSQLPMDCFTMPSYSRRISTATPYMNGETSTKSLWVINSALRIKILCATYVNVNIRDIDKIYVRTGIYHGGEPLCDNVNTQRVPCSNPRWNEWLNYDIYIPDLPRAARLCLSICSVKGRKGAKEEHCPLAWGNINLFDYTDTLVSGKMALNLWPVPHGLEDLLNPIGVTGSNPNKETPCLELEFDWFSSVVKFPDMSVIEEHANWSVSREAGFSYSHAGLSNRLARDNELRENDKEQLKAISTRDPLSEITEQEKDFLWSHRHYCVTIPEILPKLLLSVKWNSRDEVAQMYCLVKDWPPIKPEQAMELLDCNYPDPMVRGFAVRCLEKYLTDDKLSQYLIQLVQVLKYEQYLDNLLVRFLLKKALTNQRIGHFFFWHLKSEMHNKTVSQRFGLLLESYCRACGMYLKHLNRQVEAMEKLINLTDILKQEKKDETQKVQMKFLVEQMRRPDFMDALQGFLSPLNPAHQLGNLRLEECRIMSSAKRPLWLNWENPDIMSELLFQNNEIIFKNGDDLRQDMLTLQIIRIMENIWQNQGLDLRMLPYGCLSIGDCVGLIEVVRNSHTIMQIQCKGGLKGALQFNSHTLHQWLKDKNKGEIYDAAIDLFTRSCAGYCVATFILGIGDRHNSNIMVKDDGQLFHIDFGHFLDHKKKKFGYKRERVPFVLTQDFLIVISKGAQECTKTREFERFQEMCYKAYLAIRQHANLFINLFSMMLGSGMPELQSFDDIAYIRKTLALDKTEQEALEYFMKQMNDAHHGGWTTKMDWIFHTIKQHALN
PI3K-α, sequence (P27986 whole entry partner, species assumed): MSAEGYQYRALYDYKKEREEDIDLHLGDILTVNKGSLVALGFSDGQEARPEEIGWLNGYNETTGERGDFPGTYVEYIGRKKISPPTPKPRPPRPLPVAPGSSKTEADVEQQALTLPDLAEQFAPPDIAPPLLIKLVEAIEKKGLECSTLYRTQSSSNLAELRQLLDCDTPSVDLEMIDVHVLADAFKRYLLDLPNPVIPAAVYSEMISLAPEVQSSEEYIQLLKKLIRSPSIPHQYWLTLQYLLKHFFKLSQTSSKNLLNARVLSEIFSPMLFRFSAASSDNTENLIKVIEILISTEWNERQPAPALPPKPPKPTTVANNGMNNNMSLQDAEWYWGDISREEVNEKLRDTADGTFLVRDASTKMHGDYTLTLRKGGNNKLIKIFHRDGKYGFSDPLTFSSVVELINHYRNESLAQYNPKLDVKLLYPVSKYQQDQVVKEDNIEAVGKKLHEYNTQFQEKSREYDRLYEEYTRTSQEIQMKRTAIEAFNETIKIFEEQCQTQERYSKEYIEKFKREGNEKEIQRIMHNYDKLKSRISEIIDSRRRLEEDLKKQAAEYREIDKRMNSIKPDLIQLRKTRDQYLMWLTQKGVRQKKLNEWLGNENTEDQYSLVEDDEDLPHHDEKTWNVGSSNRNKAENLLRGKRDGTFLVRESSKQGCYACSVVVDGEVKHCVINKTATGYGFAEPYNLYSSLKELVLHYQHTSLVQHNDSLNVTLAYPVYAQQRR

In the case of “1-(4-{[4-(1-methylethyl)piperazin-1-yl]carbonyl}phenyl)-3-[4-(4-morpholin-4-yl-6-piperidin-1-yl-1,3,5-triazin-2-yl)phenyl]urea [Example 595]”, the values for the half-maximal inhibitory concentration (IC50) (in assay [1] (setting [3]); at PI3K-γ; in assay [2] (setting [4])) were 193 nM, 58.5 nM and 43 nM, respectively.
“4-yl-6-(3-oxa-8-azabicyclo[3.2.1]oct-8-yl)-1,3,5-triazin-2-yl]phenyl}urea [Example 518]”: the IC50 was 24 nM in assay [1] (setting [3]), 6.5 nM on PI3K-γ, 4 nM in assay [2] (setting [4]) and 0.9 nM at PI3K-α.
Turning to “4-{[(4-{4,6-bis[(3S)-3-methylmorpholin-4-yl]-1,3,5-triazin-2-yl}phenyl)carbamoyl]amino}-N-(2-pyrrolidin-1-ylethyl)benzamide [Example 635]”, the IC50 in assay [1] (setting [3]) stood at 106 nM; at PI3K-γ it was 378 nM; in assay [2] (setting [4]), 26 nM; at PI3K-α, 22 nM.
With `O=C(Nc1ccc(-c2nc(N3CCOCC3)nc(N3CCOCC3)n2)cc1)Nc1cccnc1` [Example 2, 1-[4-(4,6-dimorpholin-4-yl-1,3,5-triazin-2-yl)phenyl]-3-pyridin-3-ylurea], the IC50 on Human mTOR (FLAG-TOR) stood at 1 nM; in assay [1] (setting [5]) it was 43 nM; in assay [2] (setting [6]) it was 45 nM.
For the molecule `O=C(Nc1ccc(-c2nc(N3CCOCC3)nc(N3CCOCC3)n2)cc1)Nc1cccs1` [Example 4, 1-[4-(4,6-dimorpholin-4-yl-1,3,5-triazin-2-yl)phenyl]-3-thiophen-2-ylurea], the IC50 on Human mTOR (FLAG-TOR) was determined as 1.7 nM; in assay [1] (setting [5]) it was 43 nM; in assay [2] (setting [6]) it was 45 nM.
For `O=C(Nc1ccc(Cl)cc1)Nc1ccc(-c2nc(N3CCOCC3)nc(N3CCOCC3)n2)cc1` [Example 8, 1-(4-chlorophenyl)-3-[4-(4,6-dimorpholin-4-yl-1,3,5-triazin-2-yl)phenyl]-urea], the IC50 at Human mTOR (FLAG-TOR) is 8 nM and 68 nM; in assay [1] (MTS cell growth assay, three days after drug treatment, listed as 10, read-out: IC50 PC3-mm2), 1780 nM; in assay [2] (MTS cell growth assay, three days after drug treatment, listed as 10, read-out: IC50 MDA-MB-361) it was 2710 nM; at PI3K-α, 20 nM; on PI3K-α (listed as 10) it was 75 nM.
As for `O=C(Nc1ccc(-c2nc(N3CCOCC3)nc(N3CCOCC3)n2)cc1)Nc1ccc(F)cc1F` [Example 11, (2,4-difluorophenyl)-3-[4-(4,6-dimorpholin-4-yl-1,3,5-triazin-2-yl)phenyl]urea], the IC50 amounted to 9.25 nM on Human mTOR (FLAG-TOR); 5630 nM in assay [1] (Homo sapiens, PC3MM2, 72 h, read-out: IC50 PC3-mm2, MTS cell growth assay, three days after drug treatment); 794 nM in assay [2] (Homo sapiens, MDA-MB-361, 72 h, read-out: IC50 MDA-MB-361, MTS cell growth assay, three days after drug treatment).
For `CCN(CC)CCOC(=O)c1ccc(NC(=O)Nc2ccc(-c3nc(N4CCOCC4)nc(N4C5CCC4COC5)n3)cc2)cc1` [Example 40, 2-(diethylamino)ethyl 4-[({4-[4-morpholin-4-yl-6-(3-oxa-8-azabicyclo[3.2.1]oct-8-yl)-1,3,5-triazin-2-yl]phenyl}carbamoyl)amino]benzoate], the IC50 at Human mTOR (FLAG-TOR) is 0.66 nM; in assay [1] (setting [7]), 62 nM; in assay [1] (setting [5]), 62 nM; in assay [2] (setting [8]) it was < 30 nM; in assay [2] (setting [6]), < 30 nM.
Turning to `CC(O)c1ccc(NC(=O)Nc2ccc(-c3nc(N4CCOCC4)nc(N4CCOCC4)n3)cc2)cc1` (stereo not shown) [Example 52, 1-[4-(4,6-dimorpholin-4-yl-1,3,5-triazin-2-yl)phenyl]-3-[4-(1-hydroxyethyl)phenyl]urea], the IC50 was 1 nM on Human mTOR (FLAG-TOR), 49 nM in assay [1] (setting [5]) and < 30 nM in assay [2] (setting [6]).
`C[C@H]1COCCN1c1nc(-c2ccc(NC(=O)Nc3ccc(CO)cc3)cc2)nc(N2CCOCC2)n1` [Example 91, 1-[4-(2-hydroxymethyl)phenyl]-3-(4-{4-[(3S)-3-methylmorpholin-4-yl]-6-morpholin-4-yl-1,3,5-triazin-2-yl}phenyl)urea]: the IC50 in assay [1] (setting [5]) amounted to 1570 nM; on PI3K-γ it was 73 nM; in assay [2] (setting [6]), 25 nM; on PI3K-α, 6 nM.
Take `CC(C)Oc1nc(-c2ccc(NC(=O)Nc3ccc(C(=O)NC4CCN(C)CC4)cc3)cc2)nc(N2CCOCC2)n1` [Example 97, 4-({[4-(4-isopropoxy-6-morpholin-4-yl-1,3,5-triazin-2-yl)phenyl]carbamoyl}amino)-N-(1-methylpiperidin-4-yl)benzamide]: the IC50 at Human mTOR (FLAG-TOR) was 1.1 nM and 1.2 nM; in assay [1] (Homo sapiens, PC3MM2, 72 h, read-out: IC50 PC3-mm2), 52 nM; in assay [2] (Homo sapiens, MDA-MB-361, 72 h, read-out: IC50 MDA-MB-361) it was < 30 nM.
For the molecule `CN(C)CCN(C)C(=O)c1ccc(NC(=O)Nc2ccc(-c3nc(N4CCC4)nc(N4CCOCC4)n3)cc2)cc1` [Example 197, 4-({[4-(4-azetidin-1-yl-6-morpholin-4-yl-1,3,5-triazin-2-yl)phenyl]carbamoyl}amino)-N-[2-(dimethylamino)ethyl]-N-methylbenzamide], the values for the IC50 (at Human mTOR (FLAG-TOR); in assay [1] (setting [5]); in assay [2] (setting [6])) were 24 nM, 49 nM and 17 nM, respectively.
Take `CCN(CC)C(=O)[n+]1ccc(NC(=O)Nc2ccc(-c3nc(N4CCOCC4)nc(N4C5CCC4COC5)n3)cc2)cc1` [Example 201, 1-(diethylcarbamoyl)-4-[({4-[4-morpholin-4-yl-6-(3-oxa-8-azabicyclo[3.2.1]oct-8-yl)-1,3,5-triazin-2-yl]phenyl}carbamoyl)amino]pyridinium]: the IC50 at Human mTOR (FLAG-TOR) was 0.9 nM; in assay [1] (setting [7]), 44 nM; in assay [1] (setting [5]) it was 44 nM; in assay [2] (setting [6]), 29 nM.
With `CC(O)c1nc(-c2ccc(NC(=O)Nc3ccncc3)cc2)nc(N2CCOCC2)n1` (stereo not shown) [Example 223, 1-{4-[4-(1-hydroxyethyl)-6-morpholin-4-yl-1,3,5-triazin-2-yl]phenyl}-3-pyridin-4-ylurea], the IC50 amounted to 229 nM in assay [1] (setting [5]), 200 nM at PI3K-γ, 187 nM in assay [2] (setting [6]) and 2 nM at PI3K-α.
Turning to `O=C(Nc1ccncc1)Nc1ccc(-c2nc(-c3ccccc3)nc(N3CCOCC3)n2)cc1` [Example 346, 1-[4-(4-morpholin-4-yl-6-phenyl-1,3,5-triazin-2-yl)phenyl]-3-pyridin-4-ylurea], the 50% inhibitory concentration (IC50) in assay [1] (setting [7]) is < 31 nM; on PI3K-γ it was 89 nM; in assay [2] (setting [9]) it was < 31 nM; on PI3K-α it was 43 nM; at PI3K-α (listed as 537), 43.5 nM.
As to `CCN1CCN(C(=O)Nc2ccc(NC(=O)Nc3ccc(-c4nc(N5CCOCC5)nc(N5CCOCC5)n4)cc3)cc2)CC1` [Example 503, N-[4-({[4-(4,6-dimorpholin-4-yl-1,3,5-triazin-2-yl)phenyl]carbamoyl}amino)phenyl]-4-ethylpiperazine-1-carboxamide], the IC50 in assay [1] (setting [7]) was 12.5 nM; on PI3K-γ, 1.8 nM; in assay [2] (setting [9]) it was 7.5 nM; at PI3K-α, 0.5 nM.
Take `C[C@H]1COCCN1c1nc(-c2ccc(NC(=O)Nc3ccc(C(=O)N4CCCC4)cc3)cc2)nc(N2CCOC[C@@H]2C)n1` [Example 571, 1-(4-{4,6-bis[(3S)-3-methylmorpholin-4-yl]-1,3,5-triazin-2-yl}phenyl)-3-[4-(pyrrolidin-1-ylcarbonyl)phenyl]urea]: the IC50 in assay [1] (setting [7]) was 168 nM; at PI3K-γ, 108 nM; in assay [2] (setting [8]), 90 nM; at PI3K-α, 21 nM.
Consider `CN(C)CCNC(=O)c1ccc(NC(=O)Nc2ccc(-c3nc(N4CCCOCC4)nc(N4CCOCC4)n3)cc2)cc1` [Example 572, N-[2-(dimethylamino)ethyl]-4-[({4-[4-morpholin-4-yl-6-(1,4-oxazepan-4-yl)-1,3,5-triazin-2-yl]phenyl}carbamoyl)amino]benzamide], for which the IC50 in assay [1] (setting [7]) stood at 56 nM; at PI3K-γ, 15 nM; in assay [2] (setting [9]) it was 13 nM; on PI3K-α it was 0.9 nM.
As for `C[C@H]1COCCN1c1nc(-c2ccc(NC(=O)Nc3ccc(C(=O)NCCN4CCCC4)cc3)cc2)nc(N2CCOCC2)n1` [Example 622, 4-{[(4-{4-[(3S)-3-methylmorpholin-4-yl]-6-morpholin-4-yl-1,3,5-triazin-2-yl}phenyl)carbamoyl]amino}-N-(2-pyrrolidin-1-ylethyl)benzamide], the IC50 was 25 nM in assay [1] (setting [7]), 50.5 nM at PI3K-γ, 5 nM in assay [2] (setting [9]) and 3 nM at PI3K-α.
In the case of `C[C@@H]1COCCN1c1nc(-c2ccc(NC(=O)Nc3ccc(C(=O)NCCN(C)C)cc3)cc2)nc(N2CCOC[C@@H]2C)n1` [Example 634, N-[2-(dimethylamino)ethyl]-4-{[(4-{4-[(3R)-3-methylmorpholin-4-yl]-6-[(3S)-3-methylmorpholin-4-yl]-1,3,5-triazin-2-yl}phenyl)carbamoyl]amino}benzamide], the IC50 in assay [1] (setting [7]) was 16 nM; on PI3K-γ, 122 nM; in assay [2] (setting [9]), 5 nM; at PI3K-α, 6 nM.
